“And” between values parts separate entries of the source, which are not always exact repeats. Equal values may be shown once.
Conditions: for mass density: Liquid, isochoric method; for surface tension liquid-gas: Ring tensiometer

CCCCCCn1cc[n+](C)c1.F[P-](F)(F)(F)(F)F [1-hexyl-3-methylimidazolium hexafluorophosphate]
Conditions	mass density [kg/m3]
220.78 K, 20693 kPa	1364.2
221.31 K, 2190 kPa	1355.99
226.3 K, 10334 kPa	1355.5
226.34 K, 30167 kPa	1363.64
232.2 K, 39852 kPa	1363.05
232.44 K, 20355 kPa	1354.89
232.75 K, 1468.4 kPa	1346.06
238.32 K, 29843 kPa	1354.3
238.38 K, 10065 kPa	1345.53
239.11 K, 50924 kPa	1362.36
244.53 K, 39522 kPa	1353.69
244.58 K, 20078 kPa	1345.49
244.91 K, 1121.9 kPa	1336.19
250.82 K, 49360 kPa	1353.07
251.03 K, 10204 kPa	1335.6
251.05 K, 29930 kPa	1344.61
257.33 K, 19488 kPa	1335.01
257.74 K, 40140 kPa	1344.21
258.25 K, 1630.4 kPa	1325.22
264.3 K, 29775 kPa	1334.34
264.31 K, 10326 kPa	1324.65
264.31 K, 29966 kPa	1334.29
264.82 K, 50312 kPa	1343.28
271.12 K, 19945 kPa	1324.01
271.72 K, 40378 kPa	1333.63
272.25 K, 1996.3 kPa	1314.31
277.88 K, 100 kPa	1308.85
278.37 K, 29980 kPa	1323.33
278.39 K, 10230 kPa	1313.74
278.81 K, 49975 kPa	1332.93
283.3 K, 100 kPa	1304.78
285.6 K, 39832 kPa	1322.66
285.88 K, 20217 kPa	1313.06
285.98 K, 1730.8 kPa	1302.58
288.37 K, 100 kPa	1300.82
293.01 K, 100 kPa	1296.84
293.33 K, 11116 kPa	1301.92
293.38 K, 30030 kPa	1312.37
294.3 K, 49916 kPa	1321.89
298.16 K, 127.6 kPa	1293.38
298.21 K, 100 kPa	1293.14
300.72 K, 20089 kPa	1301.27
301.06 K, 39951 kPa	1311.66
301.51 K, 940.4 kPa	1290.78
303 K, 100 kPa	1289.6
308.05 K, 100 kPa	1285.34
308.93 K, 10526 kPa	1290.11
308.93 K, 30141 kPa	1300.53
309.51 K, 50444 kPa	1310.89
313.17 K, 100 kPa	1280.96
316.34 K, 18783 kPa	1289.47
317.93 K, 100 kPa	1277.34
318.19 K, 41900 kPa	1299.68
318.48 K, 1643.7 kPa	1277.43
323.16 K, 100 kPa	1273.19
325.52 K, 47639 kPa	1299.1
325.7 K, 29844 kPa	1288.64
325.86 K, 10002 kPa	1276.79
328.09 K, 100 kPa	1269.64
333.28 K, 100 kPa	1265.48
334.93 K, 20139 kPa	1276.01
336.11 K, 41946 kPa	1287.71
336.59 K, 1430 kPa	1262.76
338.63 K, 100 kPa	1261.76
343.3 K, 100 kPa	1257.98
344.61 K, 1230.6 kPa	1256.88
345.06 K, 10024 kPa	1262.06
345.06 K, 30866 kPa	1275.14
347.93 K, 50753 kPa	1286.78
348.55 K, 100 kPa	1254.47
353.15 K, 18882 kPa	1261.36
353.15 K, 40148 kPa	1274.42
353.16 K, 10034 kPa	1256.16
353.61 K, 100 kPa	1250.75
358.19 K, 100 kPa	1247.22
364.46 K, 100 kPa	1242.36

CCCCCCCCCCCCCC[P+](CCCCCC)(CCCCCC)CCCCCC.N#C[N-]C#N [tetradecyl(trihexyl)phosphonium dicyanamide]
Conditions	mass density [kg/m3]
240.45 K, 9948.1 kPa	936.26
247.9 K, 20013 kPa	935.78
248.45 K, 1061.1 kPa	928.34
255.19 K, 9753 kPa	927.91
255.47 K, 29932 kPa	935.43
255.48 K, 30358 kPa	935.75
262.34 K, 100 kPa	919.18
263.19 K, 40368 kPa	935.25
263.31 K, 20048 kPa	927.4
265.01 K, 1331.4 kPa	918.74
268.5 K, 100 kPa	915.58
271.01 K, 49601 kPa	934.43
271.54 K, 9121.6 kPa	918.33
271.95 K, 29894 kPa	926.34
273.37 K, 100 kPa	912.9
278.2 K, 100 kPa	910.1
279.99 K, 39498 kPa	925.84
280.34 K, 20094 kPa	917.77
281.41 K, 1813.9 kPa	908.67
283.3 K, 100 kPa	907.06
288.09 K, 48847 kPa	925.34
288.37 K, 100 kPa	904.29
289.04 K, 30059 kPa	917.24
289.74 K, 10390 kPa	908.18
293.14 K, 100 kPa	901.37
297.73 K, 39781 kPa	916.7
298.14 K, 20028 kPa	907.66
298.15 K, 119.7 kPa	898.63
298.21 K, 100 kPa	898.81
298.4 K, 1119.7 kPa	898.73
303.08 K, 100 kPa	895.87
306.53 K, 28505 kPa	907.16
307.06 K, 9995.2 kPa	898.22
307.27 K, 49935 kPa	916.12
308.18 K, 100 kPa	892.91
313.09 K, 100 kPa	890.2
316.64 K, 19643 kPa	897.65
316.65 K, 39471 kPa	906.55
318.03 K, 100 kPa	887.53
318.37 K, 1160.7 kPa	887.84
323.32 K, 100 kPa	884.69
327.54 K, 49978 kPa	905.9
327.66 K, 10032 kPa	887.3
327.67 K, 30114 kPa	897.01
328.16 K, 100 kPa	881.94
332.96 K, 100 kPa	879.42
338.03 K, 100 kPa	876.79
338.23 K, 19830 kPa	886.69
338.63 K, 41032 kPa	896.36
339.22 K, 1500.6 kPa	876.45
342.86 K, 100 kPa	873.89
348.12 K, 100 kPa	871.1
348.37 K, 49973 kPa	895.79
349.27 K, 10043 kPa	875.89
349.28 K, 29863 kPa	886.05
353.28 K, 100 kPa	868.29
358 K, 100 kPa	865.81
364.53 K, 100 kPa	862.18

Conditions	surface tension liquid-gas
283.57 K	32.46 mN/m
283.61 K	32.69 mN/m
288.08 K	32.54 mN/m
288.09 K	31.93 mN/m
293.35 K	31.85 mN/m
293.41 K	32.02 mN/m
298.2 K	31.68 mN/m
298.24 K	31.82 mN/m
303.15 K	30.98 mN/m
303.2 K	31.32 mN/m
308.16 K	30.28 mN/m
308.17 K	30.84 mN/m
313.21 K	29.67 mN/m
313.25 K	30.4 mN/m
318.29 K	29.57 mN/m
318.3 K	30.08 mN/m
323.33 K	29.65 mN/m
323.39 K	29.41 mN/m
328.05 K	28.72 mN/m
328.09 K	29.18 mN/m
333.58 K	28.62 mN/m and 28.77 mN/m
338.55 K	28.21 mN/m
338.57 K	28.35 mN/m
343.55 K	27.83 mN/m
343.57 K	27.93 mN/m
348.56 K	27.59 mN/m
348.64 K	27.56 mN/m
353.46 K	26.45 mN/m
353.49 K	27.11 mN/m
358.44 K	26.17 mN/m
358.57 K	26.7 mN/m
365.15 K	25.74 mN/m
365.21 K	26.14 mN/m
